Data taken from patent US12090164B2, “Genotype-agnostic rescue of cystic fibrosis with small molecule bicarbonate channels” (The Board of Trustees of the University of Illinois, priority 2017, dated 2024).
Entries after “also recorded” stand apart in the source; their conditions may differ.

Experiments:
[1] = in vivo; cited from earlier work
[2] = test system: yeast; settings: cited from earlier work
[3] = test system: non-CF primary cultured epithelia; experiment: ASL pH in non-CF primary cultured epithelia; format: cell-based, human; settings: AmB 2 μM, 48 h
Method: Airway epithelial cells were obtained from human trachea and bronchi of CF and non-CF specimens obtained from the Iowa Donor Network, either as post-mortem specimens or from tissue deemed not fit for transplant. Studies were approved by the University of Iowa Institutional Review Board. After pronase enzymatic digestion, cells were seeded onto collagen-coated semi-permeable membranes (0.33-1.12 cm^2, Corning 3470 polyester, 3460 polyester, 3413 polycarbonate) and grown at an air-liquid interface (52). Airway epithelial cell cultures were analyzed after they had differentiated and at least 14 days post-seeding.
Small diameter NuLi, CuFi, and primary cultured epithelia were used for this experiment (0.33 cm^2). The ratiometric pH indicator SNARF-conjugated dextran (Molecular Probes) was used to measure ASL pH. […] ASL pH was measured 2 hr later (3, 4, 25). SNARF was excited at 488 nm and emission was recorded at 580 nm and 640 nm using a Zeiss LSM 800 microscope at 40× water immersion for cell line cultures and a Zeiss LSM 510 microscope for primary cultures. To generate a standard curve for pH determination, SNARF was dissolved in colorless pH standards and fluorescence ratios were converted to pH. […]
In all experiments, ASL pH of compound-treated epithelia was measured compared the results to vehicle-treated epithelia. […]

[4] = test system: CuFi-1 (ΔF508/ΔF508) epithelia; experiment: Basolateral to apical H14CO3- transport; format: cell-based, human
Method: (§1) Small diameter NuLi and CuFi cultured epithelia were used for this experiment (0.33 cm^2). ^14C-labeled sodium HCO3^− was obtained as a sterile 35.7 mM aqueous solution pH 9.5 (MP Biomedicals 0117441H). All experiments were run less than 2 months post seeding. Fresh USG media was added to the basolateral side prior to experimentation. The apical membrane was treated with 20 μL of vehicle, AmB, or ivacaftor/forskolin as a suspension in perfluorocarbon-72 (Sigma Aldrich), and the cultured epithelia were incubated for 48 hours, 7 days, 14 days, or 28 days at 37° C. in a 5% C02 atmosphere. After the end of the treatment period, 5 μL of a 1.4 mM H^14CO3^− stock solution in USG media was added to the basolateral media. The cultured epithelia were then incubated at 37° C. for 10 minutes. After 10 minutes, the apical membrane of the cultured epithelia was immediately washed with 200 μL of PBS. The ASL wash and a 200 μL aliquot of the basolateral media were diluted in scintillation cocktail and analyzed via liquid scintillation counting (23).

[5] = test system: CuFi-4 (G551D/ΔF508) epithelia; experiment: Basolateral to apical H14CO3- transport; format: cell-based, human; settings: AmB 2 μM, ivacaftor/forskolin 10 μM
Method: as §1

## C[C@@H]1[C@H](O)[C@@H](C)/C=C/C=C/C=C/C=C/C=C/C=C/C=C/[C@H](O[C@@H]2O[C@H](C)[C@@H](O)[C@H](N)[C@@H]2O)C[C@@H]2O[C@](O)(C[C@@H](O)C[C@@H](O)[C@H](O)CC[C@@H](O)C[C@@H](O)CC(=O)O[C@H]1C)C[C@H](O)[C@H]2C(=O)O [AmB, amphotericin B]
[1]
  toxicity to humans: significant toxicity to humans
[2]
  toxicity / fungicidal activity to yeast: highly toxic to yeast
[3]
  ASL pH of non-CF primary epithelia: had no effect on the pH of non-CF primary cultured epithelia
[4]; AmB 2 μM left on epithelia
  time for which increase in H^14CO3^− secretion is sustained: at least 7 days
[4]; over 10 minutes, AmB or C35deOAmB 2 μM, ivacaftor/forskolin 10 μM
  basolateral to apical H^14CO3^− transport, apical addition: restored normal bicarbonate transport; also recorded: increased the rate of ^14C bicarbonate to match that observed in NuLi epithelia; also recorded: effective in both genotypes; also recorded: increased both
[5]
  H^14CO3^− transepithelial transport: increase H^14CO3-transepithelial transport; also recorded: effective in both genotypes; also recorded: the same increase in rate of bicarbonate efflux; also recorded: increased ASL pH and H^14CO3^− secretion
